Laboratory results: article PMC7696666, “Epithelial Transfer of the Tyrosine Kinase Inhibitors Erlotinib, Gefitinib, Afatinib, Crizotinib, Sorafenib, Sunitinib, and Dasatinib: Implications for Clinical Resistance” (Cancers, 2020)
Values joined by “and” are separate entries in the source; they are usually repeats but may differ in a detail not shown here. Equal values may be shown once. “Also recorded” adds a separate entry of the source. Read-outs that look alike come from different tables or passages of the source.

Key:
[1] = CaCo2 Transwell transport (Papp, efflux ratio); format: in vitro ADME, human; conditions: human; for efflux ratio at 180 min, 10 µM / efflux ratio at 180 min, 20 µM: read-out: Efflux Ratio (Papp B–A / Papp A–B); for Papp A→B at 180 min, 10 µM / Papp A→B at 180 min, 20 µM: read-out: Papp (Apical Basolateral); for Papp B→A at 180 min, 10 µM / Papp B→A at 180 min, 20 µM: read-out: Papp (Basolateral Apical); for efflux ratio at 180 min, 20 µM: Caco-2, 20 µM
Protocol: (§1) The Transwell system was developed using the wild type Caco-2 cell line (passage 15–25) cultured in Dulbecco’s […] medium (DMEM) at standard conditions of 37 °C, 5% CO2, and 100% humidity as previously reported. […] To ensure a controlled growth environment the plate was covered with Breathe-Easier cell culture foil during the incubation period. The integrity of the developed monolayer was assessed by TEER before administration of compound solutions and after the final sampling stage.
(§2) The initial concentration of the drug was verified from a 20 µL sample taken immediately from the donor compartment after drug administration (t = 0).
(§3) The permeability coefficient (Papp) represents a measure for the efficiency of transport and was calculated with the following equation: Papp=ΔQ/Δt×V/C0⋅A where ∆Q/∆t = the rate of increase in drug concentration (accumulative mass transport) in the receiver compartment over time (µM/s), V = volume in the receiver compartment (mL), C0 = the initial concentration of drug in the donor compartment (µM), and A = the membrane surface area (cm^2).
(§4) To take into account the slightly nonlinear transfer characteristics of each compound, the rate of increase in drug concentration was determined for each time period and the Papp was then calculated. The average Papp was then determined with units of cm/s × 10^−6 or µm/s.
(§5) The efflux ratio was calculated according to the equation: Efflux ratio=PappB→A/PappA→B.
(§6) Statistical significance was determined using a simple Student’s t-test where a p value of <0.05 was considered significant.

CaCo2 monolayer [2] = assay: CaCo2 Transwell transport (Papp, efflux ratio); format: in vitro ADME, human; conditions: for Papp basolateral to apical: B–A
Protocol: as §1, §2, §3, §4, §5, §6

CaCo2 cells [3] = assay: Intracellular accumulation in CaCo2 Transwell cells at the end of the transport period; format: in vitro ADME, human; conditions: for Intracellular accumulation at the end of the transfer period (A->B): A->B incubation
Protocol: (§7) In order to get insight in the barrier role of the CaCo2 model system, we determined the intracellular accumulation of the TKISs at the end of the transport period, in normal monolayers of CaCo2 cells and in several other colon cancer cell lines. At the end of the transport period (both from the B->A and A->B incubations), cells were harvested and intracellular accumulation was determined.
(§8) These cells were exposed to 20 μM of a TKI and were harvested after 2 h for determination of TKI concentration with LC-MS-MS. Values are means ± SEM for the number of experiments described in Figure 3, Figure 4, and Figure 5 and from three separate experiments for the monolayer CaCo2 and WiDr cells. […] A->B, mass transport from A to B; B->A, mass transport from B to A. For AFA, CRI, and DAS, no data in WiDr cells were available. […] The bar heights were not read.
(§9) In a different set of experiments, the CaCo2 cells were cultured in 6-wells plates as monolayers until semiconfluency. Two other colon cancer cell lines, WiDr and HT29, were cultured similarly. These cells were exposed for 2 h to various TKIs at concentrations varying from 50 nM to 20 µM). […] At the end of the incubation, cells were harvested, as described earlier, and extracted for drug analysis using LC-MS-MS as described above.

[4] = design: method as in PMID 30544701; conditions: method not given, ref [45], cited from earlier work
CaCo2 monolayer [5] = conditions: cited from earlier work; for Papp (Apical Basolateral) / Papp (Basolateral Apical) / Efflux Ratio (Papp B–A / Papp A–B): 20 µM, previously reported, ref [39]; for Papp (Apical Basolateral): A–B; for Papp (Basolateral Apical): B–A
CaCo2 cells [6] = assay: Intracellular accumulation in CaCo2 cells grown as normal monolayers; format: in vitro ADME, human; conditions: 20 μM, 2 h
Protocol: as §8, §9

WiDr cells = assay: Intracellular accumulation in WiDr colon cancer cells (monolayer); format: in vitro ADME; conditions: 20 μM, 2 h
Protocol: as §8, §9

HT29 cells = assay: Intracellular accumulation in HT29 colon cancer cells; format: in vitro ADME; conditions: after 24 h
Protocol: as §7
In a different set of experiments, the CaCo2 cells were cultured in 6-wells plates as monolayers until semiconfluency. Two other colon cancer cell lines, WiDr and HT29, were cultured similarly. […]

[7] = Disposition in blood compartments (whole blood, plasma, serum) of patients; format: in vivo, human; conditions: for blood plasma ratio: human, whole blood and plasma, oral
Protocol: Each individual sample was divided into two components; a 1 mL of tube of whole blood and 0.5 of plasma, each sample was stored at −20 °C until analysis could be performed. An additional serum sample was also obtained for patients treated with erlotinib. Blood samples for afatinib were obtained from NSCLC patients after 4 days receiving the standard daily dose of 40 mg.
Blood samples were taken at 1, 2, and 30 days after the start of treatment. Samples were separated from the whole blood into plasma, serum, and a packed red blood cell pellet (using the MESED apparatus). In a dose escalation study in order to determine whether a high pulsatile dose of sorafenib could be given to patients, we analyzed red blood cells and whole blood in 12 patients treated with sorafenib at total doses ranging from 2000 to 2800 mg daily. From these patients, samples were collected in 3 cycles.
For sunitinib, initially pharmacokinetic samples were collected over the first 24 h period from a single patient, with a renal cell carcinoma receiving a nonstandard treatment schedule (700 mg biweekly), in comparison to the standard 50 mg daily dose. Whole blood samples were divided into plasma, serum, and a packed red blood cell pellet. This cohort could later be extended with 6 patients treated with 800 mg sunitinib every 2 weeks enrolled in a clinical study to determine the tolerability of pulsatile sunitinib.
Five blood samples were taken over a 5-month period and divided into whole blood, an extracted 100 µL of red blood cells, and a plasma sample.

[8] = Caco-2, with sorafenib (co-incubated, concentration not stated), 10 µM, with sorafenib
[9] = clinical samples, read-out: Blood to plasma ratio
[10] = Caco-2, with erlotinib (co-incubated, concentration not stated), 10 µM, with erlotinib

SMILES | efflux ratio at 180 min, 10 µM ([1]; Caco-2, 10 µM) | Papp A→B at 180 min, 10 µM ([1]; Caco-2, 10 µM) | Papp B→A at 180 min, 10 µM ([1]; Caco-2, 10 µM) | Efflux Ratio (Papp B–A / Papp A–B) (CaCo2 monolayer [2]; 10 µM) | Papp apical to basolateral (CaCo2 monolayer [2]; 10 µM, A–B) | Total amount transferred apical to basolateral in 3 h (CaCo2 monolayer [2]; 10 µM, A–B) | Papp basolateral to apical (CaCo2 monolayer [2]; 10 µM) | Intracellular accumulation at the end of the transfer period (A->B) (CaCo2 cells [3]) | Log P [4] | Log D (pH 5.5) [4] | Log D (pH 7.5) [4] | Papp (Apical Basolateral) (CaCo2 monolayer [5]) | Papp (Basolateral Apical) (CaCo2 monolayer [5]) | Efflux Ratio (Papp B–A / Papp A–B) (CaCo2 monolayer [5]) | Intracellular accumulation in HT29 cells (HT29 cells) | blood plasma ratio [7, 9] | efflux ratio at 180 min, 20 µM [1] | Papp A→B at 180 min, 20 µM ([1]; Caco-2) | Papp B→A at 180 min, 20 µM ([1]; Caco-2) | Total amount transferred apical to basolateral in 3 h (CaCo2 monolayer [2]; 20 µM, A–B) | also measured
CN(C)C/C=C/C(=O)Nc1cc2c(Nc3ccc(F)c(Cl)c3)ncnc2cc1O[C@H]1CCOC1 [Afatinib, afatinib] | > 5 | 1.5 ± 2.2 ×10⁻⁶ cm/s | 10.9 ± 5 ×10⁻⁶ cm/s | 7.3 | 1.48 ×10⁻⁶ cm/s | 90 pmol | 10.9 ×10⁻⁶ cm/s | 0.45 pmol/μg protein | 3.59 | 1.00 | 2.87 | – | – | – | – | – | – | – | – | – | Papp apical to basolateral (CaCo2 monolayer [2]; 10 µM, A–B, listed as afatinib): 1.5 ×10⁻⁶ cm/s; Efflux Ratio (Papp B–A / Papp A–B) (CaCo2 monolayer [2]; 10 µM, listed as afatinib): 7.34 and > 6
COc1cc2ncnc(Nc3ccc(F)c(Cl)c3)c2cc1OCCCN1CCOCC1 [Gefitinib, gefitinib] | 0.33 | 0.57 ± 0.43 ×10⁻⁶ cm/s | 0.19 ± 0.12 ×10⁻⁶ cm/s | 0.3 | 0.57 ×10⁻⁶ cm/s | – | 0.19 µm/s | 0.79 pmol/μg protein | 4.11 | 1.96 | 3.55 | 0.38 ± 0.05 ×10^−6 cm/s | 0.39 ± 0.038 ×10^−6 cm/s | 1.0 | – | – | – | – | – | – | Efflux ratio after treatment with NaN3 (CaCo2 monolayer [5]; after NaN3, ref [38],[39]): 0.46
C#Cc1cccc(Nc2ncnc3cc(OCCOC)c(OCCOC)cc23)c1 [Erlotinib, erlotinib] | 1.6 | 0.48 ± 0.26 ×10⁻⁶ cm/s | 0.79 ± 0.65 ×10⁻⁶ cm/s | – | 0.48 µm/s | – | – | not detectable; also recorded: no erlotinib was detectable | 2.39 | 2.74 | 3.04 | 0.13 ± 0.001 ×10^−6 cm/s | 0.70 ± 0.30 ×10^−6 cm/s | 5.4 | 0.035 pmol/μg protein | > 30 | – | – | – | – | efflux ratio at 180 min, 10 µM [1, 8]: 1.4; Papp A→B at 180 min, 10 µM [1, 8]: 0.35 ± 0.17 ×10⁻⁶ cm/s; Papp B→A at 180 min, 10 µM [1, 8]: 0.48 ± 0.3 ×10⁻⁶ cm/s; Intracellular accumulation at the end of the transfer period (B->A) (CaCo2 cells [3]; B->A incubation): no erlotinib was detectable; Intracellular accumulation in CaCo2 monolayer (CaCo2 cells [6]): just detectable; Intracellular accumulation in WiDr cells (WiDr cells): no erlotinib; Fold higher in whole blood compared to plasma ([7]; standard dosing regimen, clinical samples): 100 fold; Efflux Ratio (Papp B–A / Papp A–B) (CaCo2 monolayer [5]; listed as erlotinib): > 5
CNC(=O)c1cc(Oc2ccc(NC(=O)Nc3ccc(Cl)c(C(F)(F)F)c3)cc2)ccn1 [Sorafenib, sorafenib] | 0.92 | 10.1 ± 9.5 ×10⁻⁶ cm/s | 9.3 ± 5.8 ×10⁻⁶ cm/s | – | – | – | – | 1.65 pmol/μg protein | 5.16 | 4.26 | 4.26 | – | – | – | 6 pmol/μg protein | > 3 | 0.86 | 14.1 ± 11.5 ×10⁻⁶ cm/s | 11.4 ± 5.6 ×10⁻⁶ cm/s | approximately 950 pmol | efflux ratio at 180 min, 10 µM [1, 10]: 0.71; Papp A→B at 180 min, 10 µM [1, 10]: 18.6 ± 13.2 ×10⁻⁶ cm/s; Papp B→A at 180 min, 10 µM [1, 10]: 13.3 ± 10.5 ×10⁻⁶ cm/s; Efflux Ratio (Papp B–A / Papp A–B) (CaCo2 monolayer [2]; 20 µM): 0.81; Efflux Ratio (Papp B–A / Papp A–B) (CaCo2 monolayer [2]; 20 µM, listed as sorafenib): 0.8; blood plasma ratio ([7]; 2000–2800 mg cumulative daily dose, 12 patients, mean ± SD, read-out: Whole blood/plasma ratio): 1.2 ± 0.4; Fold increase of concentration in whole blood compared to plasma ([7]; low dose (400 mg twice daily), several patients): 2–4 fold
C[C@@H](Oc1cc(-c2cnn(C3CCNCC3)c2)cnc1N)c1c(Cl)ccc(F)c1Cl [Crizotinib, crizotinib] | > 5 | – | 7.7 ± 5.5 ×10⁻⁶ cm/s | – | – | nothing could be detected | – | 2.11 pmol/μg protein | 4.73 | 0.30 | 1.80 | – | – | – | – | – | – | – | – | – | Papp (Apical Basolateral) (CaCo2 monolayer [2]; 10 µM, A–B): Unmeasurable; Effect of exposure on CaCo2 cells and membrane (CaCo2 monolayer [2]; 20 µM exposure): caused cell death and disruption of the membrane; A–B mass transport at 20 µM, fold lower than B–A mass transport at 10 µM (CaCo2 monolayer [2]; A–B 20 µM vs B–A 10 µM): 20 fold; Whole blood concentration higher than plasma ([7]; standard dose (250 mg twice daily), single patient): 30%
CCN(CC)CCNC(=O)c1c(C)[nH]c(/C=C2\C(=O)Nc3ccc(F)cc32)c1C [Sunitinib, sunitinib] | – | – | – | – | – | – | – | 11.9 pmol/μg protein | 3.15 | −0.09 | 1.09 | – | – | – | 32.2 pmol/μg protein | – | 1.6 | 7.7 ± 4.6 ×10⁻⁶ cm/s | 12.6 ± 12.3 ×10⁻⁶ cm/s | 581.2 pmol | blood plasma ratio ([7]; 50 mg, standard treatment at 50 mg, read-out: Whole blood/plasma ratio): 0.7; blood plasma ratio ([7]; single dose 14-fold higher than standard, 7 patients, mean ± SD, read-out: Whole blood/plasma ratio): 2.6 ± 0.7; Whole blood concentration lower than plasma ([7]; standard dosing regimen): 40–50%
